pIC50: −log10 of the molar value.
system: NCIH929.1 cells; experiment: Cell viability assay for Table 2 (CellTiter-Glo 2.0, ATP quantification, 96 hr); format: cell-based; settings: 96 h, NCIH929.1 cell viability, 96 hr, top concentration 1 μM, 14 points half log titration; read-out: IC50
From the text: Cell Viability Assay for Table 2
CellTiter-Glo® 2.0 Assay was purchased from Promega (Madison, Wis., USA). NCIH929.1 cell line was purchased from ATCC (Manassas, Va., USA). Cell culture flasks and 384-well microplates were acquired from VWR (Radnor, Pa., USA).

`CC(C1CC1)N1CCC(n2cc(Cc3ccc4c5c(cccc35)C(=O)N4C3CCC(=O)NC3=O)cn2)CC1` (single isomer, unassigned) [Compound 282, 3-(6-((1-(1-(1-cyclopropylethyl)piperidin-4-yl)-1H-pyrazol-4-yl)methyl)-2-oxobenzo[cd]indol-1(2H)-yl)piperidine-2,6-dione] and `CC(C1CCC1)N1CCC(n2cc(Cc3ccc4c5c(cccc35)C(=O)N4C3CCC(=O)NC3=O)cn2)CC1` (single isomer, unassigned) [Compound 280, 3-[6-[[1-[1-[1-cyclobutylethyl]-4-piperidyl]pyrazol-4-yl]methyl]-2-oxo-benzo[cd]indol-1-yl]piperidine-2,6-dione] cannot be ordered by pIC50: > 9.00 for the first, > 9.00 for the second.

`O=C1CCC(N2C(=O)c3cccc4c(Cc5cnn(C6CCN(CC7(F)CC7)CC6)c5)ccc2c34)C(=O)N1` (stereo not drawn) [Compound 65, 3-(6-((1-(1-((1-fluorocyclopropyl)methyl)piperidin-4-yl)-1H-pyrazol-4-yl)methyl)-2-oxobenzo[cd]indol-1(2H)-yl)piperidine-2,6-dione] and `CC1(CN2CCC(n3cc(Cc4ccc5c6c(cccc46)C(=O)N5C4CCC(=O)NC4=O)cn3)CC2)CCC1` (single isomer, unassigned) [Compound 236, 3-[6-[[1-[1-[(1-methylcyclobutyl)methyl]-4-piperidyl]pyrazol-4-yl]methyl]-2-oxo-benzo[cd]indol-1-yl]piperidine-2,6-dione] cannot be ordered by pIC50: > 9.00 for the first, > 9.00 for the second.

`CC1(C(=O)N2CCC(c3ccc(Cc4ccc5c6c(cccc46)C(=O)N5C4CCC(=O)NC4=O)cc3)CC2)CCC1` (stereo not drawn) [Compound 169, 3-[6-[[4-[1-(1-methylcyclobutanecarbonyl)-4-piperidyl]phenyl]methyl]-2-oxo-benzo[cd]indol-1-yl]piperidine-2,6-dione] and `O=C1CCC(N2C(=O)c3cccc4c(Cc5ccc(CN6CCC7(CCCC7)CC6)cc5)ccc2c34)C(=O)N1` (stereo not drawn) [Compound 225, 3-(6-(4-((8-azaspiro[4.5]decan-8-yl)methyl)benzyl)-2-oxobenzo[cd]indol-1(2H)-yl)piperidine-2,6-dione] cannot be ordered by pIC50: > 9.00 for the first, > 9.00 for the second.

`O=C1CCC(N2C(=O)c3cccc4c(Cc5ccc(CN6CCN(C(=O)c7ccccc7)CC6)cc5)ccc2c34)C(=O)N1` (stereo not drawn) [Compound 111, 3-(6-(4-((4-benzoylpiperazin-1-yl)methyl)benzyl)-2-oxobenzo[cd]indol-1(2H)-yl)piperidine-2,6-dione] and `CN1CCN(Cc2ccc(Cc3ccc4c5c(cccc35)C(=O)N4C3CCC(=O)NC3=O)cc2)CC1` (stereo not drawn) [Compound 114, 3-(6-(4-((4-methylpiperazin-1-yl)methyl)benzyl)-2-oxobenzo[cd]indol-1(2H)-yl)piperidine-2,6-dione] cannot be ordered by pIC50: > 9.00 for the first, > 9.00 for the second.

`CC1(n2cc(Cc3ccc4c5c(cccc35)C(=O)N4C3CCC(=O)NC3=O)cn2)CCN(C(=O)C23CCN(CC2)CC3)CC1` (stereo not drawn) [Compound 73, 3-(6-((l-(4-methyl-1-(quinuclidine-4-carbonyl)piperidin-4-yl)-1H-pyrazol-4-yl)methyl)-2-oxobenzo[cd]indol-1(2H)-yl)piperidine-2,6-dione] and `CC1(n2cc(Cc3ccc4c5c(cccc35)C(=O)N4C3CCC(=O)NC3=O)cn2)CCN(C(=O)C2(C(F)F)CC2)CC1` (stereo not drawn) [Compound 76, 3-(6-((1-(1-(1-(difluoromethyl)cyclopropane-1-carbonyl)-4-methylpiperidin-4-yl)-1H-pyrazol-4-yl)methyl)-2-oxobenzo[cd]indol-1(2H)-yl)piperidine-2,6-dione] cannot be ordered by pIC50: > 7.00 for the first, > 9.00 for the second.

`O=C1CCC(N2C(=O)c3cccc4c(Cc5ccc(CN6CCOCC6)nc5)ccc2c34)C(=O)N1` (stereo not drawn) [Compound 269, 3-[6-[[6-(morpholinomethyl)-3-pyridyl]methyl]-2-oxo-benzo[cd]indol-1-yl]piperidine-2,6-dione] and `O=C1CCC(N2C(=O)c3cccc4c(Cc5ccc(CN6CCS(=O)(=O)CC6)cc5)ccc2c34)C(=O)N1` (stereo not drawn) [Compound 122, 3-(6-(4-((1,4-dioxidothiomorpholino)methyl)benzyl)-2-oxobenzo[cd]indol-1(2H)-yl)piperidine-2,6-dione] cannot be ordered by pIC50: > 9.00 for the first, > 9.00 for the second.

`CC1(n2cc(Cc3ccc4c5c(cccc35)C(=O)N4C3CCC(=O)NC3=O)cn2)CCN(CC2(C(F)(F)F)CC2)CC1` (stereo not drawn) [Compound 105, 3-(6-((1-(4-methyl-1-((1-(trifluoromethyl)cyclopropyl)methyl)piperidin-4-yl)-1H-pyrazol-4-yl)methyl)-2-oxobenzo[cd]indol-1(2H)-yl)piperidine-2,6-dione] and `CC1(CN2CCC(C#N)(n3cc(Cc4ccc5c6c(cccc46)C(=O)N5C4CCC(=O)NC4=O)cn3)CC2)CCC1` (stereo not drawn) [Compound 193, 4-[4-[[1-(2,6-dioxo-3-piperidyl)-2-oxo-benzo[cd]indol-6-yl]methyl]pyrazol-1-yl]-1-[(1-methylcyclobutyl)methyl]piperidine-4-carbonitrile] cannot be ordered by pIC50: > 9.00 for the first, > 9.00 for the second.

`CN1CCN(Cc2ccc(Cc3ccc4c5c(cccc35)C(=O)N4C3CCC(=O)NC3=O)cc2)CC1=O` (stereo not drawn) [Compound 116, 3-(6-(4-((4-mcthyl-3-oxopiperazin-1-yl)methyl)benzyl)-2-oxobenzo[cd]indol-1(2H)-yl)piperidme-2,6-dione] and `CC(C)(O)C1CCN(Cc2ccc(Cc3ccc4c5c(cccc35)C(=O)N4C3CCC(=O)NC3=O)cc2)CC1` (stereo not drawn) [Compound 232, 3-(6-(4-((4-(2-hydroxypropan-2-yl)piperidin-1-yl)methyl)benzyl)-2-oxobenzo[cd]indol-1(2H)-yl)piperidine-2,6-dione] cannot be ordered by pIC50: > 9.00 for the first, > 9.00 for the second.

`O=C1CCC(N2C(=O)c3cccc4c(Cc5cnn(C6CC(OCc7ccccc7)C6)c5)ccc2c34)C(=O)N1` (stereo not drawn) [Compound 177, 3-[6-[[1-(3-benzyloxycyclobutyl)pyrazol-4-yl]methyl]-2-oxo-benzo[cd]indol-1-yl]piperidine-2,6-dione] and `N#Cc1ccc(N2CCC(Cc3ccc(Cc4ccc5c6c(cccc46)C(=O)N5C4CCC(=O)NC4=O)cc3)CC2)c(F)c1` (stereo not drawn) [Compound 151, 4-(4-(4-((1-(2,6-dioxopiperidin-3-yl)-2-oxo-1,2-dihydrobenzo[cd]indol-6-yl)methyl)benzyl)piperidin-1-yl)-3-fluorobenzonitrile] cannot be ordered by pIC50: > 7.00 for the first, > 9.00 for the second.

`CC1(C(=O)N2CCC(n3cc(Nc4ccc5c6c(cccc46)C(=O)N5C4CCC(=O)NC4=O)c(Cl)n3)CC2)CCC1` (stereo not drawn) [Compound 251, 3-[6-[[3-chloro-1-[1-(1-methylcyclobutanecarbonyl)-4-piperidyl]pyrazol-4-yl]amino]-2-oxo-benzo[cd]indol-1-yl]piperidine-2,6-dione] and `CC1(n2cc(Cc3ccc4c5c(cccc35)C(=O)N4C3CCC(=O)NC3=O)cn2)CCN(C(=O)C23CC(CO2)C3)CC1` (stereo not drawn) [Compound 90, 3-(6-((1-(1-(2-oxabicyclo[2.1.1]hexane-1-carbonyl)-4-methylpiperidin-4-yl)-1H-pyrazol-4-yl)methyl)-2-oxobenzo[cd]indol-1(2H)-yl)piperidine-2,6-dione] cannot be ordered by pIC50: > 7.00 for the first, > 9.00 for the second.

same assay, conditions: NCIH929.1 cell viability, 96 hr, top concentration 1 μM, 14 points half log titration; read-out: IC50

For `O=C1CCC(N2C(=O)c3cccc4c(Cc5ccc(CN6CCN(c7ccc(Cl)cc7F)CC6)cc5)ccc2c34)C(=O)N1` (single isomer, unassigned) [Compound 255, 3-[6-[[4-[[4-(4-chloro-2-fluoro-phenyl)piperazin-1-yl]methyl]phenyl]methyl]-2-oxo-benzo[cd]indol-1-yl]piperidine-2,6-dione], the pIC50 was > 9.00.

Reference: patent publication US20230082430A1 (C4 Therapeutics, Inc., priority 2019, published 2023)
